PubChem BioAssay AID504839 (Johns Hopkins Ion Channel Center, 2011)

Biological target: Potassium voltage-gated channel subfamily KQT member 2 (Rattus norvegicus) (UniProt O88943)
Experiment: PubChem AID 504839
Settings: KCNQ2-CHO cells, automated patch clamp current

Potassium voltage-gated channel subfamily KQT member 2 (Rattus norvegicus), sequence (O88943 whole entry, looked up): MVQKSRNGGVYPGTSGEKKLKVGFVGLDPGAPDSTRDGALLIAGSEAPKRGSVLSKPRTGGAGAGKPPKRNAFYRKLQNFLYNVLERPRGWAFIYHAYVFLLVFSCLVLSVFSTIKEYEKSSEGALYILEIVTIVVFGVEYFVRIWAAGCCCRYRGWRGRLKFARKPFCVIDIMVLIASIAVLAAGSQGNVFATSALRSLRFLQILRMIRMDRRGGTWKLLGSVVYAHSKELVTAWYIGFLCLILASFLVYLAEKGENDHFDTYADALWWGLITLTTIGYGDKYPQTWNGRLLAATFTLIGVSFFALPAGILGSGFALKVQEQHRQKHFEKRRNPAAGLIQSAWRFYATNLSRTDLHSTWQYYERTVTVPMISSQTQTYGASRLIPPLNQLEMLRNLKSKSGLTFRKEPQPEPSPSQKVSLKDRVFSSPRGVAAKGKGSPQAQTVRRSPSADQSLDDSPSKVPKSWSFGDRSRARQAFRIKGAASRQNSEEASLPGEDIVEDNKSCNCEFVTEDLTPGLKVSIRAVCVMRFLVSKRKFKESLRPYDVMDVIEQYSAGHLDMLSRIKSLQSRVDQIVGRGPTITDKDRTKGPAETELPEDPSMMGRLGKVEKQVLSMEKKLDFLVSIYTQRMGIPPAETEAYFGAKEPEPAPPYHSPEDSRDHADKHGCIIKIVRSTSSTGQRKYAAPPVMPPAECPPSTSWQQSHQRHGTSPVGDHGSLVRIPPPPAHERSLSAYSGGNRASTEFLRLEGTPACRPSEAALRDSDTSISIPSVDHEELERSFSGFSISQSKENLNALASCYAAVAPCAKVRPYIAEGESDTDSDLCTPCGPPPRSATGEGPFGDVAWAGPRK

IC50: 160 nM
SMILES: CCC(C(=O)Nc1ccccc1N1CCCC1)c1ccccc1 (stereo unspecified)
